# Literature values, collected in US20130347140A1, “High Rebaudioside-A Plant and Methods of Producing the Same and Uses Thereof” (priority 2010, published 2013).
# Conditions: vs sugar
row,SMILES,"sweetness, × of sugar"
1,C=C1C[C@@]23CC[C@H]4[C@@](C)(CCC[C@@]4(C)C(=O)O[C@@H]4O[C@H](CO)[C@@H](O)[C@H](O)[C@H]4O)[C@@H]2CC[C@]1(O[C@@H]1O[C@H](CO)[C@@H](O)[C@H](O[C@@H]2O[C@H](CO)[C@@H](O)[C@H](O)[C@H]2O)[C@H]1O[C@@H]1O[C@H](CO)[C@@H](O)[C@H](O)[C@H]1O)C3 [Rebaudioside A],350-450 ×
2,C=C1C[C@@]23CC[C@H]4[C@@](C)(CCC[C@@]4(C)C(=O)O[C@@H]4O[C@H](CO)[C@@H](O)[C@H](O)[C@H]4O)[C@@H]2CC[C@]1(O[C@@H]1O[C@H](CO)[C@@H](O)[C@H](O)[C@H]1O[C@@H]1O[C@H](CO)[C@@H](O)[C@H](O)[C@H]1O)C3 [Stevioside],250-300 ×
